The subject of one assay is MYC expression. Conditions: human breast cancer cell line; cited from earlier work.
In a further assay the test system is MYC_14/23T G4. The experiment in a line: G4 microarray competition with Cy5-PDS, MYC_14/23T. It counts as binding, human. The note with it: MYC_14/23T G4, 1 μM BMVC and 1 μM Cy5-PDS. The method, then:
Custom G4 microarrays have been designed that contain a total of 19,249 G4 DNA sequences [31, the entirety of disclosure of which, including the supplemental information, is incorporated herein by reference]. The G4 microarrays were created by covalently attaching thousands of unique G4-forming DNA 60-mers to a glass surface. Pyridostatin (PDS) is a known G4-interactive compound. […] To test the binding selectivity of BMVC, competition experiments using custom G4 microarrays were performed. The addition of potassium-containing solution to G4-forming oligonucleotides induced G4 formation. […] After washing to remove the unbound Cy5-PDS and BMVC, the fluorescence intensities of Cy5-PDS bound to DNA oligonucleotides were detected using a fluorescence scanner. The binding selectivity of BMVC to different G4 structures was assessed by measuring the relative fluorescence intensity reduction of Cy5-PDS as BMVC concentration increased.
To determine the G4-binding selectivity of BMVC, the BMVC binding to known G4 structures was examined, including 7 well-studied MYC promoter G4 sequences, 15 other oncogene promoter G4 sequences, and 3 human telomeric G4 sequences (TABLE 4). BMVC competes with the binding of Cy5-PDS to most G4 sequences in a dose-dependent manner as indicated by reduced fluorescence intensities (FIG. 8a). […]

Assay [1] deals with PDGF-A_Pu48, MYB, Bcl-2_P1G4 and Bcl2_55G G4 sequences. The experiment in a line: G4 microarray competition with Cy5-PDS, other oncogene promoter G4s. It counts as binding, human. As for the experimental part: Custom G4 microarrays have been designed that contain a total of 19,249 G4 DNA sequences [31, the entirety of disclosure of which, including the supplemental information, is incorporated herein by reference]. The G4 microarrays were created by covalently attaching thousands of unique G4-forming DNA 60-mers to a glass surface. Pyridostatin (PDS) is a known G4-interactive compound. […] To test the binding selectivity of BMVC, competition experiments using custom G4 microarrays were performed. The addition of potassium-containing solution to G4-forming oligonucleotides induced G4 formation. Subsequently, the microarrays were incubated with 1 μM Cy5-PDS in the absence or presence of 1 μM, 3 μM, or 10 μM of the unlabeled BMVC molecule. After washing to remove the unbound Cy5-PDS and BMVC, the fluorescence intensities of Cy5-PDS bound to DNA oligonucleotides were detected using a fluorescence scanner. The binding selectivity of BMVC to different G4 structures was assessed by measuring the relative fluorescence intensity reduction of Cy5-PDS as BMVC concentration increased.
To determine the G4-binding selectivity of BMVC, the BMVC binding to known G4 structures was examined, including 7 well-studied MYC promoter G4 sequences, 15 other oncogene promoter G4 sequences, and 3 human telomeric G4 sequences (TABLE 4). BMVC competes with the binding of Cy5-PDS to most G4 sequences in a dose-dependent manner as indicated by reduced fluorescence intensities (FIG. 8a).
DNA Microarray Binding Experiments DNA microarray experiments were performed and analyzed as described previously. Microarrays were preincubated with a pH 7.4 phosphate buffer solution with 100 mM potassium for 1 h at room temperature to induce G4 formation. […]
Data Processing and Analysis Molecule-bound microarrays were scanned with an Agilent G5761A SureScan Dx Microarray Scanner System to detect Cy5 signal at two laser settings (30 and 100 PMT). Spot intensities from microarray images were extracted using Agilent Feature Extraction Software and are reported as raw fluorescence intensities. […]

For a further assay, the system named is MYC Pu22 G4 variants. The experiment in a line: G4 microarray direct binding to loop length, loop sequence and tail variants. Further details: species or system human. An excerpt: Three Agilent DNA microarrays (TABLE 1) were designed, each with four identical sectors that contain ca.177,440 ssDNA 60-mers to examine G4-binding specificity. Arrays were designed with 9-73 replicates of each unique sequence to ensure statistical significance (TABLE 1). Each microarray contains different sets of G4 variants designed to examine several sequence parameters that affect G4 formation and binding specificity such as loop length (Design 1), loop sequence (Design 2), tail sequence (Design 2), and single nucleotide variants of six known G4s (Design 3). […]
The effect of specific sequence parameters on molecule binding was examined. […] Distinct patterns within the best-bound sequences were identified, including flexibility for the nucleotides in the central loop of the G4 and an overall preference for thymines in loops (FIG. 3F), consistent with previous findings that T nucleotides in loops have a greater propensity for folding into G4s than other nucleotides.^39 Different tail sequence ([…] (SEQ ID NO: 3)) preferences were found for all measured molecules (FIG. 3G), further underscoring the utility of the platform in identifying sequence features important for G4 binding and highlighting tail sequences in determining binding specificity. […]

Turning to `C[n+]1ccc(/C=C/c2ccc3[nH]c4ccc(/C=C/c5cc[n+](C)cc5)cc4c3c2)cc1.[I-].[I-]` [BMVC, 3,6-Bis(1-methyl-4-vinylpyridinium) carbazole diiodide], in the assay on MYC expression, the “effect on MYC expression” value was “represses MYC expression”. The “reduction of Cy5-PDS binding among all parallel G4s” value in the assay with MYC_14/23T G4 is “largest reduction”. Also, the “binding to Bcl2_55G” value in assay [1] (competition with Cy5-PDS) was “good binding”. Also, the “binding to Bcl-2_P1G4” value in assay [1] (competition with Cy5-PDS, compared with Bcl2_55G) is on record as “markedly weaker”. Further, the “binding to PDGF-A_Pu48 and MYB sequences relative to Cy5-PDS” value in assay [1] (equimolar competition) is listed as “much weaker”.

B1: DHX36: GST-tagged human DHX36/G4R1/MLEL1 helicase (protein, listed as Homo sapiens)
chain: MSYDYHQNWGRDGGPRSSGGGYGGGPAGGHGGNRGSGGGGGGGGGGRGGRGRHPGHLKGREIGMWYAKKQGQKNKEAERQERAVVHMDERREEQIVQLLNSVQAKNDKESEAQISWFAPEDHGYGTEVSTKNTPCSENKLDIQEKKLINQEKKMFRIRNRSYIDRDSEYLLQENEPDGTLDQKLLEDLQKKKNDLRYIEMQHFREKLPSYGMQKELVNLIDNHQVTVISGETGCGKTTQVTQFILDNYIERGKGSACRIVCTQPRRISAISVAERVAAERAESCGSGNSTGYQIRLQSRLPRKQGSILYCTTGIILQWLQSDPYLSSVSHIVLDEIHERNLQSDVLMTVVKDLLNFRSDLKVILMSATLNAEKFSEYFGNCPMIHIPGFTFPVVEYLLEDVIEKIRYVPEQKEHRSQFKRGFMQGHVNRQEKEEKEAIYKERWPDYVRELRRRYSASTVDVIEMMEDDKVDLNLIVALIRYIVLEEEDGAILVFLPGWDNISTLHDLLMSQVMFKSDKFLIIPLHSLMPTVNQTQVFKRTPPGVRKIVIATNIAETSITIDDVVYVIDGGKIKETHFDTQNNISTMSAEWVSKANAKQRKGRAGRVQPGHCYHLYNGLRASLLDDYQLPEILRTPLEELCLQIKILRLGGIAYFLSRLMDPPSNEAVLLSIRHLMELNALDKQEELTPLGVHLARLPVEPHIGKMILFGALFCCLDPVLTIAASLSFKDPFVIPLGKEKIADARRKELAKDTRSDHLTVVNAFEGWEEARRRGFRYEKDYCWEYFLSSNTLQMLHNMKGQFAEHLLGAGFVSSRNPKDPESNINSDNEKIIKAVICAGLYPKVAKIRLNLGKKRKMVKVYTKTDGLVAVHPKSVNVEQTDFHYNWLIYHLKMRTSSIYLYDCTEVSPYCLLFFGGDISIQKDNDQETIAVDEWIVFQSPARIAHLVKELRKELDILLQEKIESPHPVDWNDTKSRDCAVLSAIIDLIKTQEKATPRNFPPRFQDGYYS
modifications: GST tag
notes: GST-tagged human DHX36/G4R1/MLEL1 helicase
Turning to B1, the “tail (flanking) sequence preference in direct binding” value in the assay with MYC Pu22 G4 variants (NNGGGTGGGGAGGGTGGGNN variants, no competitor) is on record as “preferentially binds MYC22 G4 variants containing pyrimidines (C/T) at the 5′ end of the G4”.

B2: FANCJ: GST-tagged human BRCA1-binding helicase-like protein / Fanconi anemia group J protein (protein, listed as Homo sapiens)
chain: MSSMWSEYTIGGVKIYFPYKAYPSQLAMMNSILRGLNSKQHCLLESPTGSGKSLALLCSALAWQQSLSGKPADEGVSEKAEVQLSCCCACHSKDFTNNDMNQGTSRHFNYPSTPPSERNGTSSTCQDSPEKTTLAAKLSAKKQASIYRDENDDFQVEKKRIRPLETTQQIRKRHCFGTEVHNLDAKVDSGKTVKLNSPLEKINSFSPQKPPGHCSRCCCSTKQGNSQESSNTIKKDHTGKSKIPKIYFGTRTHKQIAQITRELRRTAYSGVPMTILSSRDHTCVHPEVVGNFNRNEKCMELLDGKNGKSCYFYHGVHKISDQHTLQTFQGMCKAWDIEELVSLGKKLKACPYYTARELIQDADIIFCPYNYLLDAQIRESMDLNLKEQVVILDEAHNIEDCARESASYSVTEVQLRFARDELDSMVNNNIRKKDHEPLRAVCCSLINWLEANAEYLVERDYESACKIWSGNEMLLTLHKMGITTATFPILQGHFSAVLQKEEKISPIYGKEEAREVPVISASTQIMLKGLFMVLDYLFRQNSRFADDYKIAIQQTYSWTNQIDISDKNGLLVLPKNKKRSRQKTAVHVLNFWCLNPAVAFSDINGKVQTIVLTSGTLSPMKSFSSELGVTFTIQLEANHIIKNSQVWVGTIGSGPKGRNLCATFQNTETFEFQDEVGALLLSVCQTVSQGILCFLPSYKLLEKLKERWLSTGLWHNLELVKTVIVEPQGGEKTNFDELLQVYYDAIKYKGEKDGALLVAVCRGKVSEGLDFSDDNARAVITIGIPFPNVKDLQVELKRQYNDHHSKLRGLLPGRQWYEIQAYRALNQALGRCIRHRNDWGALILVDDRFRNNPSRYISGLSKWVRQQIQHHSTFESALESLAEFSKKHQKVLNVSIKDRTNIQDNESTLEVTSLKYSTPPYLLEAASHLSPENFVEDEAKICVQELQCPKIITKNSPLPSSIISRKEKNDPVFLEEAGKAEKIVISRSTSPTFNKQTKRVSWSSFNSLGQYFTGKIPKATPELGSSENSASSPPRFKTEKMESKTVLPFTDKCESSNLTVNTSFGSCPQSETIISSLKIDATLTRKNHSEHPLCSEEALDPDIELSLVSEEDKQSTSNRDFETEAEDESIYFTPELYDPEDTDEEKNDLAETDRGNRLANNSDCILAKDLFEIRTIKEVDSAREVKAEDCIDTKLNGILHIEESKIDDIDGNVKTTWINELELGKTHEIEIKNFKPSPSKNKGMFPGFK
modifications: GST tag
As to B2, the “correlation (R) of loop length of the MYC Pu22 G4 vs binding intensity” value in the assay on MYC Pu22 G4 variants (loop length variants) is “strongest effect”.
